These results are taken from PMC9320114 (Molecules, 2022).

The structures appear in SMILES notation.

The target in one experiment is T1, hMAO-A (Homo sapiens, UniProt P21397).
T1 construct: purchased Sigma Aldrich; host or cells: BTI-TN-5B1-4 baculovirus-infected insect cells
T1 sequence (P21397 1-527): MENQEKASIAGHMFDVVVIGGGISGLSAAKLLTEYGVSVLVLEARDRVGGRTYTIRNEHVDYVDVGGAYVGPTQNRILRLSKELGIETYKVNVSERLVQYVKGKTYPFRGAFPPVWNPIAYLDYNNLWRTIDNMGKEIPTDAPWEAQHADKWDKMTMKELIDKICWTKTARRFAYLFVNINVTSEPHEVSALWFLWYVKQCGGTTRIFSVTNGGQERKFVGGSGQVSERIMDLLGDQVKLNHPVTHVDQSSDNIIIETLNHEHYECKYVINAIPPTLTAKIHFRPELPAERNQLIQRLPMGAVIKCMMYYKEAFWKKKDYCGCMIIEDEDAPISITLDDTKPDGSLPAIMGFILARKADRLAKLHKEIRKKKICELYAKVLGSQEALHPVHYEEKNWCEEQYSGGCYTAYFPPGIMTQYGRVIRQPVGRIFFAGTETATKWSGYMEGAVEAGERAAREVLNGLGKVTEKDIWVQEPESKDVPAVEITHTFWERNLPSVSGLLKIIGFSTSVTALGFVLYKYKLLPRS
The experiment in a line: Inhibition of hMAO-A, fluorimetric Amplex Red assay. It is filed as biochemical. As to conditions: residual activity at 10 µM; for remaining activity at 10 µM: read-out: hMAO-A RA (%). The protocol: (§1) The effects of the compounds on hMAO-A and hMAO-B were investigated using a fluorimetric assay, following a method previously described in the literature. Recombinant human microsomal hMAO enzymes expressed in BTI-TN-5B1-4 baculovirus-infected insect cells, horseradish peroxidase (HRP, type II, lyophilized powder), and p-tyramine hydrochloride were purchased from Sigma Aldrich. 10-Acetyl-3,7-dihydroxyphenoxazine (Amplex Red reagent) was synthesized as described in the literature.
Briefly, 100 µL of 50 mM sodium phosphate buffer (pH 7.4, 0.05% (v/v) Triton X-114), containing the compounds and hMAO-A or hMAO-B, was incubated for 15 min at 37 °C in a flat-bottomed black 96-well microplate protected from ambient light. After preincubation, the reaction was started by adding final concentrations of 200 µM Amplex Red reagent, 2 U/mL HRP, and 1 mM p-tyramine hydrochloride. Resorufin production was quantified based on the fluorescence produced (λex = 530 nm; λem = 590 nm) at 37 °C over a 20 min period. For the control experiments, DMSO was used instead of appropriate dilutions of the compounds in DMSO. For the determination of blank (b), the enzyme solution was replaced by a phosphate-buffered solution. Initial velocities were calculated from the obtained trend, with each measurement performed in duplicate. Specific fluorescence emission to determine the final results was calculated after subtracting the blank activity (b). Inhibitory potencies were expressed as RAs, and IC50 values were calculated as described in the section “Inhibition of hBChE and mAChE” above.

The target in the next experiment is T2, hMAO-B (Homo sapiens, UniProt P27338).
T2 construct: purchased Sigma Aldrich; host or cells: BTI-TN-5B1-4 baculovirus-infected insect cells
T2 sequence (P27338 1-520): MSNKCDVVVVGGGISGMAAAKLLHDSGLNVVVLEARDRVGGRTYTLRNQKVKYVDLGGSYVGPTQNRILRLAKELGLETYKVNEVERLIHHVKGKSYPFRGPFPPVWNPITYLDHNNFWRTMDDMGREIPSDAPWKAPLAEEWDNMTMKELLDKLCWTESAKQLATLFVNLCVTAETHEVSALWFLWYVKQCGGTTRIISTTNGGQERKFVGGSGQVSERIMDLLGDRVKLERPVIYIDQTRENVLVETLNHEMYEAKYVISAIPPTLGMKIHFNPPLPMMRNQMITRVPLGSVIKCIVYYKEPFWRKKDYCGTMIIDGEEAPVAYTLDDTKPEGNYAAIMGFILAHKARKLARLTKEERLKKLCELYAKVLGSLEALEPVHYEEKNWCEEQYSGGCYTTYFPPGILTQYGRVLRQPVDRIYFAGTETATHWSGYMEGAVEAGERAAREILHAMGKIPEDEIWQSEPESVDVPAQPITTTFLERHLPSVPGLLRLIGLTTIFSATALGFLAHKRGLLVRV
The experiment in a line: biochemical. The settings on record: for hMAO-B RA [%] / remaining activity at 10 µM: residual activity at 10 µM; for remaining activity at 10 µM: read-out: hMAO-B RA (%); for IC50: IC50 ± SEM.
Description: as §1
After preincubation, the reaction was started by adding final concentrations of 200 µM Amplex Red reagent, 2 U/mL HRP, and 1 mM p-tyramine hydrochloride. Resorufin production was quantified based on the fluorescence produced (λex = 530 nm; λem = 590 nm) at 37 °C over a 20 min period. For the control experiments, DMSO was used instead of appropriate dilutions of the compounds in DMSO. For the determination of blank (b), the enzyme solution was replaced by a phosphate-buffered solution. Initial velocities were calculated from the obtained trend, with each measurement performed in duplicate. Specific fluorescence emission to determine the final results was calculated after subtracting the blank activity (b). Inhibitory potencies were expressed as RAs, and IC50 values were calculated as described in the section “Inhibition of hBChE and mAChE” above.

The target of another experiment is MurC (Escherichia coli, UniProt P17952). The experiment in a line: Inhibition of MurC, colorimetric malachite green method. It is filed as biochemical, bacterial. As to conditions: for remaining activity at 100 µM: 0.25 h, residual activity at 100 µM, read-out: MurC RA (%); for remaining activity at 100 µM / IC50: Table 2; for IC50: IC50 ± SEM, read-out: MurC IC50. The protocol:
Inhibition of Mur enzymes was monitored with the colorimetric malachite green method, which measured orthophosphate formed during reaction. The mixtures with a final volume of 50 µL contained:
MurC: 50 mM HEPES-NaOH, pH 8.0, 5 mM MgCl2, 0.005% Triton X-114, 120 µM L-Ala, 120 µM UDP-N-acetyl-muramic acid, 450 µM ATP, purified MurC, and 50 or 100 µM of each compound tested.
All compounds were soluble in the assay mixtures containing 5% DMSO (v/v). After incubation for 15 min (20 min for DdlB) at 37 °C, the enzyme reaction was terminated by addition of Biomol® reagent (100 µL) and absorbance was measured after 5 min at 650 nm (Synergy™ H4 microplate reader; BioTek Instruments, Inc., BioTek Gen5 Data Analysis Software, version 2.9, Santa Clara, CA, USA). All experiments were performed in duplicate.

MurC, sequence (P17952 whole entry): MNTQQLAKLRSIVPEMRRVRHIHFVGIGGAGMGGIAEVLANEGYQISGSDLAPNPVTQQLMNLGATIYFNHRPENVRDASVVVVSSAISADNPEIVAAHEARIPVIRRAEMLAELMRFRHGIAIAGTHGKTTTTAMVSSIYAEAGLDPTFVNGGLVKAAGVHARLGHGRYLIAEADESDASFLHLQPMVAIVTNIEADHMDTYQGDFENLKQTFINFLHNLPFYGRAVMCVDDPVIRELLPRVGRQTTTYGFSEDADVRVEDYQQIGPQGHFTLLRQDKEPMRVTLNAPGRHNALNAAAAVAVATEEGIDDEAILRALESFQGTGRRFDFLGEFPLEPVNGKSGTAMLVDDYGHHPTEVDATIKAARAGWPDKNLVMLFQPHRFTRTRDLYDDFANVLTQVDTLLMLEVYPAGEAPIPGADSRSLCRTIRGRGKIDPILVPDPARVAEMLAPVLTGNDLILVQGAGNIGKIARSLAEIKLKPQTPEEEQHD

Regarding `c1cc(OCC2CCCN2c2ccnc3ncnn23)c2ccncc2c1` (stereo not shown) [Compound S2], at hMAO-A (Table S3), the “hMAO-A RA [%]” value amounted to 87%. Further, the “hMAO-B RA [%]” value on hMAO-B (Table S3) turned out to be 88%.
For `CNC(=O)c1cc(Oc2ccc(NC(=O)Nc3cc(C(F)(F)F)ccc3-n3cncn3)cc2)ccn1` [Compound 20], the “hMAO-A RA [%]” value at hMAO-A (Table 3) was 60%. Moreover, at hMAO-B (Table 3), the remaining activity at 10 µM amounted to 99%.
By IC50 is commonly meant the concentration that gives 50% inhibition. Take `CCCCc1nc2ccn(Cc3ccccc3F)c(=O)c2n1Cc1ccc(-c2ccccc2-c2nnn[nH]2)cc1` [Compound 10]: at MurC, the remaining activity at 100 µM was 30% and the IC50 is 92 ± 11 µM.
Regarding `CNC(=O)c1cc(Oc2ccc(NC(=O)Nc3cc(C(F)(F)F)ccc3-n3cncn3)cc2)cc[n+]1[O-]` [Compound 26], the results for the remaining activity at 10 µM on hMAO-A (Table 3) and on hMAO-B (Table 3) were 89% and 98%, respectively.
Turning to `CCCCc1nc2ccn(Cc3ccccc3C(=O)O)c(=O)c2n1Cc1ccc(-c2ccccc2-c2nnn[nH]2)cc1` [Compound 13], at MurC, the remaining activity at 100 µM came out at 34% and the IC50 is 109 ± 26 µM.
With `CCCCc1nc2ccn(Cc3ccccc3C(=O)OCC)c(=O)c2n1Cc1ccc(-c2ccccc2C#N)cc1` [Compound 18], the remaining activity at 100 µM on MurC worked out at 58%.
For the compound `CCCCc1nc2ccn(Cc3ccccc3Cl)c(=O)c2n1Cc1ccc(-c2ccccc2-c2nnn[nH]2)cc1` [Compound 11], at MurC, the remaining activity at 100 µM amounted to 20% and the IC50 is 77 ± 12 µM.
On to `CCCCc1nc2ccn(CC(=O)N3CCCCC3)c(=O)c2n1Cc1ccc(-c2ccccc2S(=O)(=O)NC(=O)CCc2ccccc2)cc1F` [Compound 16], for which the remaining activity at 100 µM on MurC amounted to 53%.
With `FC(F)(F)c1ccc2nccc(OCC3CCCN3c3ccnc4ncnn34)c2c1` (stereo not shown) [Compound S1], the “hMAO-A RA [%]” value on hMAO-A (Table S3) came to 70%. The “hMAO-B RA [%]” value on hMAO-B (Table S3) was found to be 75%.
For `O=C(OCC1CCCN1c1ccnc2ncnn12)c1cccc(CCl)c1` (stereo not shown) [Compound S7] the same measures were 70% and 93%.
For `CNC(=O)c1cc(Oc2ccc(NC(=O)Nc3ccc(Cl)c(C(F)(F)F)c3)cc2)ccn1` [Compound 29], the remaining activity at 10 µM at hMAO-A (Table 3) is 86%; on hMAO-B (Table 3) it was 89%.
With `CCCCc1nc2ccn(Cc3ccccc3-c3ccccc3)c(=O)c2n1Cc1ccc(-c2ccccc2-c2nnn[nH]2)cc1` [Compound 19], at MurC, the remaining activity at 100 µM was 15% and the IC50 turned out to be 75 ± 9 µM.
The corresponding values for `CCCCc1nc2ccn(Cc3ccsc3)c(=O)c2n1Cc1ccc(-c2ccccc2-c2nnn[nH]2)cc1` [Compound 14] are 26% and 90 ± 13 µM.
On to `O=C(Nc1cc(C(F)(F)F)ccc1-n1cncn1)Nc1ccc(OCCN2CCOCC2)c2ccccc12` [Compound 25], for which the remaining activity at 10 µM on hMAO-A (Table 3) worked out at 79%; on hMAO-B (Table 3), 86%.
In the case of `COc1ccc2c3c([nH]c2c1)C(C)=NCC3` [Harmaline, reference compound], the remaining activity at 10 µM on hMAO-A (Table 3) came out at 0%.
For `O=C(NCCc1ccc(Cl)cc1)c1cc(OCC2CCCN2c2ccnc3ncnn23)c2ccccc2n1` (stereo not shown) [Compound S8], the “hMAO-A RA [%]” value at hMAO-A (Table S3) amounted to 86%. In addition, the “hMAO-B RA [%]” value on hMAO-B (Table S3) is listed as 104%.
`CNC(=O)c1cc(Oc2ccc(NC(=O)Nc3cc(C(F)(F)F)ccc3F)cc2)ccn1` [Compound 24]: the remaining activity at 10 µM at hMAO-A (Table 3) and on hMAO-B (Table 3) was 100% in each case.
With `CNC(=O)c1cc(Oc2ccc(NC(=O)Nc3cc(C(F)(F)F)ccc3-n3cncn3)cc2)ccn1` [Compound 21], the “hMAO-A RA [%]” value on hMAO-A (Table 3) is given as 92%. Moreover, the “hMAO-B RA [%]” value on hMAO-B (Table 3) is reported as 88%.
For the compound `O=C(Nc1ccc(OCCN2CCCCC2)cc1)Nc1cc(C(F)(F)F)ccc1-n1cncn1` [Compound 28], the remaining activity at 10 µM on hMAO-A (Table 3) was found to be 94%. Moreover, on hMAO-B (Table 3), the IC50 was determined as 2.6 ± 0.1 µM and the remaining activity at 10 µM came to 15%.
On to `O=C(OCC1CCCN1c1ccnc2ncnn12)c1ccccc1I` (stereo not shown) [Compound S9], for which the “hMAO-A RA [%]” value at hMAO-A (Table S3) came to 90%. Besides, on hMAO-B (Table S3), the “hMAO-B RA [%]” value was determined as 93%.
`CCCCc1nc2ccn(Cc3ccccc3C(=O)OC)c(=O)c2n1Cc1ccc(-c2ccccc2-c2nnn[nH]2)cc1` [Compound 12]: on MurC, the remaining activity at 100 µM was 27% and the IC50 amounted to 84 ± 15 µM.
With `N#Cc1cccc(C(=O)OCC2CCCN2c2ccnc3ncnn23)c1` (stereo not shown) [Compound S3], at hMAO-A (Table S3), the “hMAO-A RA [%]” value worked out at 96%. The “hMAO-B RA [%]” value at hMAO-B (Table S3) came out at 91%.
The corresponding values for `CC(=O)N1CCc2cccc(OCC3CCCN3c3ccnc4ncnn34)c2C1` (stereo not shown) [Compound S5] are 94% and 98%.
`c1cc(OCC2CCCN2c2ccnc3ncnn23)c2cccnc2c1` (stereo not shown) [Compound S4]: at hMAO-A (Table S3), the “hMAO-A RA [%]” value was 80%. Moreover, the “hMAO-B RA [%]” value at hMAO-B (Table S3) is given as 99%.
On to `CCCCc1nc2ccn(CC(=O)NC(C)(C)C)c(=O)c2n1Cc1ccc(-c2ccccc2S(=O)(=O)NC(=O)CCc2ccccc2)cc1F` [Compound 15], for which the remaining activity at 100 µM at MurC came to 59%. Further, the “MurC inhibition (in words)” value at MurC (assayed at 100 µM) is on record as “loss of MurC inhibition”.
Consider `CCOc1cccc(C(=O)OCC2CCCN2c2ccnc3ncnn23)c1` (stereo not shown) [Compound S6], for which the “hMAO-A RA [%]” value at hMAO-A (Table S3) is 96%. Further, the “hMAO-B RA [%]” value at hMAO-B (Table S3) amounted to 88%.
As for `Nc1ncnc2c1ncn2-c1ccc(NC(=O)Nc2cc(C(F)(F)F)ccc2-n2cncn2)cc1` [Compound 22], on hMAO-A (Table 3), the remaining activity at 10 µM was 111%. Also, on hMAO-B (Table 3), it took 0.71 ± 0.1 µM to reach half-maximal inhibition (IC50) and the remaining activity at 10 µM is 6%.
In the case of `Nc1ccc(NC(=O)Nc2cc(C(F)(F)F)ccc2-n2cncn2)cc1` [Compound 23], the remaining activity at 10 µM on hMAO-A (Table 3) is 100%. On hMAO-B (Table 3), 3 ± 0.8 µM corresponded to half-maximal inhibition (IC50) and the remaining activity at 10 µM turned out to be 24%.
For `CN(C)CCOc1ccc(NC(=O)Nc2cc(C(F)(F)F)ccc2-n2cncn2)cc1` [Compound 27] the same measures were 117%, 0.465 ± 0.042 µM and 6%.
On to `O=C(OCC1CCCN1c1ccnc2ncnn12)c1cccc(OC(F)(F)F)c1` (stereo not shown) [Compound S10], for which the “hMAO-A RA [%]” value at hMAO-A (Table S3) is given as 92%. At hMAO-B (Table S3), the “hMAO-B RA [%]” value is recorded as 81%.
